{
  "source": "patent US20250197914A1",
  "about": "“MICROBIAL MEDIUM COMPOSITION FOR PRODUCING RETINOL, COMPRISING ANTI-OXIDANT, AND USE THEREOF” (CJ CHEILJEDANG CORPORATION, priority 2022, published 2025)",
  "data": [
    {"test_system": "retinol-producing strains (Yarrowia lipolytica)", "assay": "Flask test of retinol production of retinol-producing strains with antioxidants in the medium", "type": "cell-based", "settings": "antioxidant added to YLMM2 medium at 0.01% to 0.05%; 30° C., 200 rpm; 48 hour culture; HPLC", "description": "A flask test was performed to compare the degree of retinol production of retinol-producing strains according to the presence and absence, and the type of antioxidants. Each retinol production platform strain was inoculated in a 250 ml corner-baffled flask containing 25 ml of Yarrowia lipolytica minimal media2 (YLMM2) at an initial OD of 4, and 4 types of antioxidants, 3,5-Di-tert-4-butylhydroxytoluene (BHT), propyl gallate (PG), vitamin C, and glutathione (GSH), were added to the medium at a concentration of 0.01% to 0.05%, respectively. Culturing was carried out under conditions of 30° C. and 200 rpm.\nTo evaluate the degree of growth according to culture time, the OD value at a wavelength of 600 nm was measured using a spectrophotometer, and the method of measuring retinol concentrations is as follows; After the culture was completed, 1 ml of the culture medium was centrifuged to remove the supernatant, then 0.5 ml of dimethyl sulfoxide (DMSO, Sigma) was added and the cells were disrupted by agitation at 55° C. for 10 minutes (agitation; 2,000 rpm). Next, 0.5 ml of acetone (Sigma) containing 4% BHT was added and agitated (2,000 rpm) for 15 min at 45° C., and retinoids extracted in this manner were quantitatively analyzed using HPLC equipment.\nConsidering that the sugar consumption rate may vary depending on the type of antioxidants which were added to the medium, BHT, PG, vitamin C, and GSH were each cultured for 48 hours. After 48 hour-incubation, retinal and retinol were extracted and quantified.", "values": [
      {"smiles": "O=C1O[C@H]([C@@H](O)CO)C(O)=C1O", "note": "[vitamin C, ascorbic acid]", "retinol concentration increase as compared to the control group without antioxidants": "≤ 1.44 times"},
      {"smiles": "CCCOC(=O)c1cc(O)c(O)c(O)c1", "note": "[PG, propyl gallate]", "retinol concentration increase as compared to the control group without antioxidants": "≤ 1.82 times"},
      {"smiles": "Cc1cc(C(C)(C)C)c(O)c(C(C)(C)C)c1", "note": "[BHT, 3,5-di-tert-4-butylhydroxytoluene]", "retinol concentration increase as compared to the control group without antioxidants": "up to 1.89 times"},
      {"smiles": "N[C@@H](CCC(=O)N[C@@H](CS)C(=O)NCC(=O)O)C(=O)O", "note": "[GSH, glutathione]", "retinol concentration increase as compared to the control group without antioxidants": "≤ 1.21 times"}
    ]}
  ]
}
